Measured values: US8846704B2, “Thiopyrimidine-based compounds and uses thereof” (YM Biosciences Austraila Pty Ltd, priority 2007, dated 2014)

Key:
human JAK1 = target: T1, human JAK1 (Homo sapiens, UniProt P23458); test: Alphascreen tyrosine kinase enzyme assay, JAK1 kinase domain; format: biochemical; conditions: read-out: JAK1 IC50_nM
T1 construct: The kinase domain of human JAK1 was amplified; GST (N); made in house; host or cells: Sf9 insect cells (baculovirus)
Procedure: For screening purposes, compounds (in 100% DMSO) were warmed at 37 degrees for at least 20 minutes before use. A […] stock was initially made in assay buffer, where the final concentration of DMSO was 0.3%. The stocks were then diluted in 384 well Optiplates (Packard) where the final concentration of the compound was […].
The kinase domain of human JAK1 was amplified from U937mRNA using the polymerase chain reaction with the following primers: […]
The JAK1 PCR products were cloned into the pDest20 destination vector (Gibco). The JAK1 plasmid was then transformed into competent DH10Bac cells (Gibco), and the recombinant baculovirus was prepared via Sf9 insect cell transfection.
Baculovirus preparations from each of the constructs were infected into either one or five liters of Sf9 cells (Invitrogen) grown in SF-900 medium (Invitrogen) to a cell density of approximately 1-2×10^6 cells/ml. Cells were infected with virus at a MOI of 0.8-3.0. Cells were harvested and lysed. Tyrosine kinase domains were purified by affinity chromatography on a glutathione-agarose column (Scientifix Pty. Ltd. catalog #: GSH-200).
Kinase assays were performed in 384 well Optiplates (Packard) using an Alphascreen Protein Tyrosine Kinase PY100 detection kit The compounds were pre-incubated with affinity purified PTK domain in the presence of phosphotyrosine assay buffer (10 mM HEPES, pH 7.5, 100 mM MgCl2, 25 mM NaCl, […] and 0.1% Tween 20) for 20 minutes. The compounds were then incubated with substrate in the presence of ATP. The substrate used was susbtrate-1 with the sequence biotin-EGPWLEEEEEAYGWMDF-NH2 [SEQ. ID. NO. 13] (final concentration […]). For HCK 80 μm ATP was used and incubated for 60 minutes. Alphascreen phosphotyrosine acceptor beads followed by streptavidin donor beads at a concentration of 1/100 in stop buffer were added to each well under subdued light and incubated for 2-3 hours., The Alphascreen plates were read on a Packard Fusion Alpha instrument.

human JAK2 = target: T2, human JAK2 (Homo sapiens, UniProt O60674); test: Alphascreen tyrosine kinase enzyme assay, JAK2 kinase domain; format: biochemical; conditions: read-out: JAK2 IC50_nM
T2 construct: The kinase domain of human JAK2 was amplified; GST (N); made in house; host or cells: Sf9 insect cells (baculovirus)
In short: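 JAK2 kinase domain expressed in baculovirus/Sf9 and glutathione-affinity purified. Compounds (final […]) pre-incubated 20 min with enzyme in 10 mM HEPES pH 7.5, MgCl2, NaCl, vanadate, 0.1% Tween 20.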

CTLL2 = test: Cellular screening, CTLL2 cells, Alamar Blue; format: cell-based; conditions: Mus musculus, CTLL-2, read-out: CTLL2 IC50_nM
Procedure: (§1) Cell suspensions were prepared by harvesting cells from culture (the cells used in this test were in late log phase growth with high viability.) Cells were diluted in the appropriate growth medium, as described above, to 1.1× final concentration (from 50,000 cell/mL to 200,000 cell/mL, depending on cell line).
(§2) Compounds to be tested were added (10 μL, 10× final concentration) to a flat bottomed 96-well plate. The cellular suspension (90 μL per well) was then added, and the plate incubated for 40 hr at 37° C., 5% CO2. Alamar Blue 10 μL per well was added and the plates returned to the incubator for a further 4-6 hours. The plates were then read at 544 nm.

[1] = target: T3, BaF3 TELJAK2 cells (BafT_J2) (Homo sapiens, UniProt O60674); test: Cellular screening, BaF3 TEL:JAK2 cells, Alamar Blue; format: cell-based; conditions: 40 hr, read-out: BafT_J2 IC50_nM
T3 construct: fused on or other part: TEL (ETV6) N-terminal part, coding nucleotides 1-487, serves as the oligomerising partner; It is fused through a Sal I site to the JAK2 kinase domain and expressed from pTRE2 in BaF3 cells bearing pTET-off; P41212 (Transcription factor ETV6)
Procedure: For screening purposes, compounds were diluted in 96 well plates at a concentration of 20 μM. Plates were warmed at 37° C. for 30 minutes before the assay was performed.
The coding region encompassing nucleotides 1-487 of TEL was amplified by PCR using the oligonucleotides STEL (5′-GGAGGATCCTGATCTCTCTCGCTGTGAGAC-3′) [SEQ ID NO 14] and 3TEL (5′-AGGC GTCGACTTCTTCTTCATGGTTCTG-3′) [SEQ ID NO 15] and U937 mRNA as a template. A […] restriction site was incorporated into the STEL primer, and a Sal I restriction site was incorporated into the 3TEL primer. The regions encompassing the kinase domain of JAK2 (nucleotides 2994-3914; JAK2F 5′-ACGC GTCGACGGTGCCTTTGAAGACCGGGAT-3′ [SEQ ID NO 16]; JAK2R 5′-ATAGTTTAGCGGCCGCTCAGAATGAAGGTCATTT-3′) [SEQ ID NO 17] and JAK3 (nucleotides 2520-3469; JAK3F 5′-GAAGTCGACTATGCCTGCCAAGACCCCACGATCTT-3′) [SEQ ID NO 18] were generated by PCR using Taq DNA polymerase (Gibco/BRL) and […] as a template. A Sal I restriction site was incorporated into the forward primer of JAK2 and JAK3, a Not I site was incorporated into the JAK2 reverse primer and a Xba I site was added to the reverse primer of JAK3.
A TEL/Jak2 fusion was generated by digestion of the TELPCR product with BamH I/Sal I restriction enzymes, digestion of the JAK2 PCR product with Sal I/Not I restriction enzymes, followed by ligation and subcloning of the ligation product into the mammalian expression Vector pTRE 2 (Clontech), which was prepared by digestion with BamH I-Not I restriction enzymes, to give the TEL/Jak2 fusion plasmid pTELJAK2.
The growth factor dependant myelomonocytic cell line BaF3 bearing the pTET-off plasmid (Clontech) was transfected with either pTELJAK2 or pTELJAK3, and the transfected cells were selected for growth-factor independent cell growth. The BaF3 wild-type cells were cultured in DMEM containing 10% FCS, 10% WEHI 3B conditioned medium. The BaF3 TELJAK cells ([…]) were cultured in DMEM 10% Tet-System Approved FBS (without WEHI 3B conditioned medium).
as §1, §2

T2 sequence (O60674 849-1124 limits assumed): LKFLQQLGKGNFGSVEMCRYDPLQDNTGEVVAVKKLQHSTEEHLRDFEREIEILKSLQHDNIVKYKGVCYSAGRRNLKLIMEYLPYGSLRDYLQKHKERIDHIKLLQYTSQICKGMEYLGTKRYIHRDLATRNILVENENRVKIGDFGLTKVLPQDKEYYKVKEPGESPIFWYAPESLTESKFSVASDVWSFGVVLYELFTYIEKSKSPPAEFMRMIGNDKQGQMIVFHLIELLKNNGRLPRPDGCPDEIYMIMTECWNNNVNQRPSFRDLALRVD
T3 sequence (O60674 whole entry, change not shown, the tested form may be a part): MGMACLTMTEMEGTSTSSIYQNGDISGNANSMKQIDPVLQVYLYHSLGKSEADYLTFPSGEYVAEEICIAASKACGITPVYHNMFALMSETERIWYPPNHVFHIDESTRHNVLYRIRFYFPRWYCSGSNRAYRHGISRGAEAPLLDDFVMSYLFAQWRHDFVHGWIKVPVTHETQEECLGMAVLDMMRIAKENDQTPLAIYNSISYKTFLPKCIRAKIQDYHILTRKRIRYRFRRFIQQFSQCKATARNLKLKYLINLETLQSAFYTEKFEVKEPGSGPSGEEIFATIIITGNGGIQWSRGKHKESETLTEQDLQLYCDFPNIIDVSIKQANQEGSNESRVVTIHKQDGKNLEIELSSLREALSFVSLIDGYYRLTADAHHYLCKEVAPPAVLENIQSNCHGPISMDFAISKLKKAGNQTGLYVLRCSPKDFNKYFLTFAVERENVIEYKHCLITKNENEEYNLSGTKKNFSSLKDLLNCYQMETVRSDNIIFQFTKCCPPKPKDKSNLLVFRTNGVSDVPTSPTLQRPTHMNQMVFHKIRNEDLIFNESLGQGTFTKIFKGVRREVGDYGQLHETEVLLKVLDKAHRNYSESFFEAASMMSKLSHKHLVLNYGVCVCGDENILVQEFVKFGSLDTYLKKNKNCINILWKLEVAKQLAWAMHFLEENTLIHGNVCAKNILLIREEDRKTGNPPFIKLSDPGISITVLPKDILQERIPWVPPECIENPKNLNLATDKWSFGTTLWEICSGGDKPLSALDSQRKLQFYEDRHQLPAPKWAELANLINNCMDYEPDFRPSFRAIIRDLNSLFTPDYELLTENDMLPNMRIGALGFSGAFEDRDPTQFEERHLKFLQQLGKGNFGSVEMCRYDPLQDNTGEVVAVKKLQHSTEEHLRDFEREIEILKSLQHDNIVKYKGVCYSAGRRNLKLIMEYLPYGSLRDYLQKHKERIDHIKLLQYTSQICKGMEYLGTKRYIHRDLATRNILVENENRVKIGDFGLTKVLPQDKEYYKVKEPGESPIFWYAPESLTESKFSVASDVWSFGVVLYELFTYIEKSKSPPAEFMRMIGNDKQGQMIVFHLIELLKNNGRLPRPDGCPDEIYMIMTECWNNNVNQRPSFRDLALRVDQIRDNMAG
T1 sequence (P23458 875-1153 limits assumed): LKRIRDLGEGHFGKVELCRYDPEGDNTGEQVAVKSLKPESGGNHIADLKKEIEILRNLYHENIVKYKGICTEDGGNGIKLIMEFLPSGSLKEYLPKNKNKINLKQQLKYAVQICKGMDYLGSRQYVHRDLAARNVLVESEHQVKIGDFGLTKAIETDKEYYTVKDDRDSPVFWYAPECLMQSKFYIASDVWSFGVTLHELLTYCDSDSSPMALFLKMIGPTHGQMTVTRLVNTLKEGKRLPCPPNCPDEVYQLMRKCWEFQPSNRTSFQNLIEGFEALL

| SMILES | IC50 (human JAK1) [µM] | IC50 (human JAK2) [µM] | IC50 (CTLL2) [µM] | GI50 [1] [µM] |
| --- | --- | --- | --- | --- |
| C=CC(=O)Nc1cccc(Sc2ccnc(Nc3cccc(N4CCOCC4)c3)n2)c1 [Compound 110, N-(3-(2-(3-morpholinophenylao)pyrimidin-4-ylthio)phenyl)acrylamide] | > 1 | > 1 | < 5 | < 20 |
| C=CC(=O)NCc1ccc(Sc2ccnc(Nc3ccc(N4CCOCC4)cc3)n2)cc1 [Compound 111, N-(4-(2-(4-morpholinophenylamino)pyrimidin-4-ylthio)benzyl)acrylamide] | > 1 | > 1 | < 5 | < 20 |
| C=CC(=O)Nc1ccc(Sc2nc(Nc3ccc(N4CCOCC4)cc3)ncc2F)cc1 [Compound 268, N-(4-(5-fluoro-2-(4-morpholinophenylao)pyrimidin-4-ylthio)phenyl)acrylamide] | > 1 | > 1 | < 1 | > 20 |
| Cc1cnc(Nc2ccc(O)cc2)nc1Sc1ccc(NC(=O)CCl)cc1 [Compound 193, 2-chloro-N-(4-(2-(4-hydroxyphenylao)-5-methylpyrimidin-4-ylthio)phenyl)acetamide] | > 1 | > 1 | < 1 | < 5 |
| C=CC(=O)Nc1ccc(Sc2ccnc(Nc3ccc(N4CCOCC4)cc3)n2)cc1 [Compound 25, N-(4-(2-(4-morpholinophenylamino)pyrimidin-4-ylthio)phenyl)acrylamide] | > 1 | > 1 | < 1 | > 20 |
| C=CC(=O)Nc1ccc(Sc2nc(Nc3ccc(N4CCCC(O)C4)cc3)ncc2C)cc1 (stereo not drawn) [Compound 299, N-(4-(2-(4-(3-hydroxypiperidin-1-yl)phenylao)-5-methylpyrimidin-4-ylthio)phenyl)acrylamide] | > 1 | > 1 | < 1 | < 20 |
| C=CC(=O)Nc1cccc(Nc2nccc(Sc3ccccn3)n2)c1 [Compound 2, N-(3-(4-(pyridin-2-ylthio)pyrimidin-2-ylamino)phenyl)acrylamide] | > 1 | > 1 | < 5 | < 5 |
| C=CC(=O)Nc1ccc(Sc2nc(Nc3ccc(OC)c(OC)c3)ncc2C)cc1 [Compound 241, N-(4-(2-(3,4-dimethoxyphenylao)-5-methylpyrimidin-4-ylthio)phenyl)acrylamide] | > 1 | > 1 | < 1 | < 5 |
| C=CC(=O)Nc1ccc(Sc2ccnc(Nc3cccc(N4CCOCC4)c3)n2)cc1 [Compound 77, N-(4-(2-(3-morpholinophenylao)pyrimidin-4-ylthio)phenyl)acrylamide] | > 1 | > 1 | < 1 | < 5 |
| C=CC(=O)N(C)c1ccc(Sc2nc(Nc3ccc(N4CCOCC4)cc3)ncc2Br)cc1 [Compound 261, N-(4-(5-bromo-2-(4-morpholinophenylao)pyrimidin-4-ylthio)phenyl)-N-methylacrylamide] | > 1 | < 0.5 | < 1 | > 20 |
| C=CC(=O)Nc1ccc(Sc2nc(Nc3ccc(N4CCOCC4)cc3)ncc2Br)cc1 [Compound 306, N-(4-(5-bromo-2-(4-morpholinophenylao)pyrimidin-4-ylthio)phenyl)acrylamide] | > 1 | > 1 | < 1 | > 20 |
| OCc1cccc(Sc2ccnc(Nc3ccc(N4CCOCC4)cc3)n2)c1 [Compound 62, (3-(2-(4-Morpholinophenylamino)pyrimidin-4-ylthio)phenyl)methanol] | > 1 | < 0.5 | < 20 | < 20 |
| C=CC(=O)Nc1ccc(Sc2nc(Nc3ccc(C4CCN(C)CC4)cc3)ncc2C)cc1 [Compound 246, N-(4-(5-methyl-2-(4-(1-methylpiperidin-4-yl)phenylao)pyrimidin-4-ylthio)phenyl)acrylamide] | > 1 | > 1 | – | < 5 |
| O=C(/C=C\Cl)Nc1ccc(Sc2ccnc(Nc3ccc(N4CCOCC4)cc3)n2)cc1 [Compound 346, (Z)-3-chloro-N-(4-(2-(4-morpholinophenylao)pyrimidin-4-ylthio)phenyl)acrylamide] | > 1 | > 1 | < 20 | < 1 |
| N#Cc1nnnn1Cc1ccc(Sc2ccnc(Nc3ccc(N4CCOCC4)cc3)n2)cc1 [Compound 155, 1-(4-(2-(4-morpholinophenylao)pyrimidin-4-ylthio)benzyl)-1H-tetrazole-5-carbonitrile] | > 1 | > 1 | < 5 | < 20 |
| Cc1cnc(Nc2ccc(N3CCOCC3)cc2)nc1Sc1ccc(N2C(=O)CSCC2=O)cc1 [Compound 231, 4-(4-(5-methyl-2-(4-morpholinophenylao)pyrimidin-4-ylthio)phenyl)thiomorpholine-3,5-dione] | > 1 | > 1 | < 20 | < 20 |
| C=CC(=O)Nc1ccc(Sc2nc(Nc3ccc(N4CCOCC4)cc3)ncc2C)cc1CC [Compound 260, N-(2-ethyl-4-(5-methyl-2-(4-morpholinophenylao)pyrimidin-4-ylthio)phenyl)acrylamide] | – | > 1 | < 5 | > 20 |
| Nc1ccc(Sc2nc(Nc3cccc(N4CCOCC4)c3)ncc2I)cc1 [Compound 264, 4-(4-aophenylthio)-5-iodo-N-(3-morpholinophenyl)pyrimidin-2-ae] | – | > 1 | < 5 | < 5 |
| COc1ccc(Nc2ncc(C)c(Sc3ccc(N)cc3)n2)cc1OC [Compound 240, 4-(4-aophenylthio)-N-(3,4-dimethoxyphenyl)-5-methylpyrimidin-2-ae] | – | > 1 | < 5 | < 5 |
